We go through 25 compounds from ChEMBL document CHEMBL1145730, “Nodulisporic acid side-chain modifications: access to the 2", 3", 4", and 6" registers” (Bioorg Med Chem Lett, 2003).

The experiment concerns Pulicinae. The experiment in a line: In vitro flea activity using a membrane feeding assay wherein adult fleas ingest drug-treated bovine blood. In kind it is functional.
In turn, `C=C(C)[C@H]1C(=O)c2c3c(cc4c5c(n1c24)[C@@]1(C)C(CC[C@H]2[C@](C)(C/C=C/C(C)=O)[C@@H](O)CC[C@@]21C)C5)C1=CC(C)(C)OC(C)(C)C1[C@@H]3O` (stereo not given in full) returned an Activity of 10 p.p.m.
Consider `C=CCN(C)C(=O)/C=C/[C@]1(C)[C@@H](O)CC[C@@]2(C)[C@H]1CCC1Cc3c(n4c5c(c6c(cc35)C3=CC(C)(C)OC(C)(C)C3[C@@H]6O)C(=O)[C@@H]4C(=C)C)[C@@]12C` (stereo not given in full), for which the Activity was greater than 10 p.p.m.
Next, `C=C(C)[C@H]1C(=O)c2c3c(cc4c5c(n1c24)[C@@]1(C)C(CC[C@H]2[C@](C)(/C=C/C=C(\C)C(=O)O)[C@@H](O)CC[C@@]21C)C5)C1=CC(C)(C)OC(C)(C)C1[C@@H]3O` (stereo not given in full): 1 p.p.m.
Compound `C=C(C)[C@H]1C(=O)c2c3c(cc4c5c(n1c24)[C@@]1(C)C(CC[C@H]2[C@](C)(/C=C/C(=O)N(C)C)[C@@H](O)CC[C@@]21C)C5)C1=CC(C)(C)OC(C)(C)C1[C@@H]3O` (stereo not given in full) gave an Activity greater than 10 p.p.m.
Next, `C=C(C)[C@H]1C(=O)c2c3c(cc4c5c(n1c24)[C@@]1(C)C(CC[C@H]2[C@](C)(/C=C/CC=O)[C@@H](O)CC[C@@]21C)C5)C1=CC(C)(C)OC(C)(C)C1[C@@H]3O` (stereo not given in full): 10 p.p.m; `C=C(C)[C@H]1C(=O)c2c3c(cc4c5c(n1c24)[C@@]1(C)C(CC[C@H]2[C@](C)(/C=C/CC(=O)NC(C)(C)C)[C@@H](O)CC[C@@]21C)C5)C1=CC(C)(C)OC(C)(C)C1[C@@H]3O` (stereo not given in full): 1 p.p.m.
To `C=C(C)[C@H]1C(=O)c2c3c(cc4c5c(n1c24)[C@@]1(C)C(CC[C@H]2[C@](C)(/C=C/C(=O)NCCC)[C@@H](O)CC[C@@]21C)C5)C1=CC(C)(C)OC(C)(C)C1[C@@H]3O` (stereo not given in full) belongs greater than 10 p.p.m.
Consider `C=C(C)[C@H]1C(=O)c2c3c(cc4c5c(n1c24)[C@@]1(C)C(CC[C@H]2[C@](C)(/C=C/C(=O)NC(C)(C)c4ccccn4)[C@@H](O)CC[C@@]21C)C5)C1=CC(C)(C)OC(C)(C)C1[C@@H]3O` (stereo not given in full), for which the Activity amounted to 1 p.p.m.
To `C=C(C)[C@H]1C(=O)c2c3c(cc4c5c(n1c24)[C@@]1(C)C(CC[C@H]2[C@](C)(/C=C/CC(=O)Nc4ccccc4)[C@@H](O)CC[C@@]21C)C5)C1=CC(C)(C)OC(C)(C)C1[C@@H]3O` (stereo not given in full) belongs 1 p.p.m; to `C=C(C)[C@H]1C(=O)c2c3c(cc4c5c(n1c24)[C@@]1(C)C(CC[C@H]2[C@](C)(/C=C/CC(=O)OC)[C@@H](O)CC[C@@]21C)C5)C1=CC(C)(C)OC(C)(C)C1[C@@H]3O` (stereo not given in full), 1 p.p.m.
With `C=C(C)[C@H]1C(=O)c2c3c(cc4c5c(n1c24)[C@@]1(C)C(CC[C@H]2[C@](C)(/C=C/CC(=O)NC4CC4)[C@@H](O)CC[C@@]21C)C5)C1=CC(C)(C)OC(C)(C)C1[C@@H]3O` (stereo not given in full), the Activity worked out at 1 p.p.m.
To `C=C(C)[C@H]1C(=O)c2c3c(cc4c5c(n1c24)[C@@]1(C)C(CC[C@H]2[C@](C)(C/C=C/C(=O)N(C)C)[C@@H](O)CC[C@@]21C)C5)C1=CC(C)(C)OC(C)(C)C1[C@@H]3O` (stereo not given in full) belongs 10 p.p.m.
`C=C(C)[C@H]1C(=O)c2c3c(cc4c5c(n1c24)[C@@]1(C)C(CC[C@H]2[C@](C)(/C=C/C(=O)N4CCN(c6ccccn6)CC4)[C@@H](O)CC[C@@]21C)C5)C1=CC(C)(C)OC(C)(C)C1[C@@H]3O` (stereo not given in full) registered an Activity of 1 p.p.m.
To `C=C(C)[C@H]1C(=O)c2c3c(cc4c5c(n1c24)[C@@]1(C)C(CC[C@H]2[C@](C)(/C=C/CC(=O)N(C)C)[C@@H](O)CC[C@@]21C)C5)C1=CC(C)(C)OC(C)(C)C1[C@@H]3O` (stereo not given in full) belongs 10 p.p.m.
To `C=C(C)[C@H]1C(=O)c2c3c(cc4c5c(n1c24)[C@@]1(C)C(CC[C@H]2[C@](C)(/C=C/C(=O)NCc4ccccc4)[C@@H](O)CC[C@@]21C)C5)C1=CC(C)(C)OC(C)(C)C1[C@@H]3O` (stereo not given in full) belongs 10 p.p.m.
To `C=C(C)[C@H]1C(=O)c2c3c(cc4c5c(n1c24)[C@@]1(C)C(CC[C@H]2[C@](C)(/C=C/CC(=O)N4CCOCC4)[C@@H](O)CC[C@@]21C)C5)C1=CC(C)(C)OC(C)(C)C1[C@@H]3O` (stereo not given in full) belongs 1 p.p.m.
In turn, `C=C(C)[C@H]1C(=O)c2c3c(cc4c5c(n1c24)[C@@]1(C)C(CC[C@H]2[C@](C)(/C=C/CC(=O)NCc4ccccc4)[C@@H](O)CC[C@@]21C)C5)C1=CC(C)(C)OC(C)(C)C1[C@@H]3O` (stereo not given in full) displayed an Activity of 10 p.p.m.
`C=C(C)[C@H]1C(=O)c2c3c(cc4c5c(n1c24)[C@@]1(C)C(CC[C@H]2[C@](C)(C/C=C/C(=O)NCC)[C@@H](O)CC[C@@]21C)C5)C1=CC(C)(C)OC(C)(C)C1[C@@H]3O` (stereo not given in full) gave an Activity of 10 p.p.m.
Next, `C=C(C)[C@H]1C(=O)c2c3c(cc4c5c(n1c24)[C@@]1(C)C(CC[C@H]2[C@](C)(/C=C/CC(=O)NCc4ccco4)[C@@H](O)CC[C@@]21C)C5)C1=CC(C)(C)OC(C)(C)C1[C@@H]3O` (stereo not given in full): 10 p.p.m.
To `C=C(C)[C@H]1C(=O)c2c3c(cc4c5c(n1c24)[C@@]1(C)C(CC[C@H]2[C@](C)(/C=C/CC(=O)N(C)CCC)[C@@H](O)CC[C@@]21C)C5)C1=CC(C)(C)OC(C)(C)C1[C@@H]3O` (stereo not given in full) belongs 1 p.p.m; to `C=C(C)[C@H]1C(=O)c2c3c(cc4c5c(n1c24)[C@@]1(C)C(CC[C@H]2[C@](C)(/C=C/C(=O)NC)[C@@H](O)CC[C@@]21C)C5)C1=CC(C)(C)OC(C)(C)C1[C@@H]3O` (stereo not given in full), 10 p.p.m.
`C=C(C)[C@H]1C(=O)c2c3c(cc4c5c(n1c24)[C@@]1(C)C(CC[C@H]2[C@](C)(/C=C/CC(C)=O)[C@@H](O)CC[C@@]21C)C5)C1=CC(C)(C)OC(C)(C)C1[C@@H]3O` (stereo not given in full) gave an Activity of 1 p.p.m.
To `C=C(C)[C@H]1C(=O)c2c3c(cc4c5c(n1c24)[C@@]1(C)C(CC[C@H]2[C@](C)(C/C=C/C(=O)NC4CC4)[C@@H](O)CC[C@@]21C)C5)C1=CC(C)(C)OC(C)(C)C1[C@@H]3O` (stereo not given in full) belongs greater than 10 p.p.m; to `C=C(C)[C@H]1C(=O)c2c3c(cc4c5c(n1c24)[C@@]1(C)C(CC[C@H]2[C@](C)(/C=C/CC(=O)NCC)[C@@H](O)CC[C@@]21C)C5)C1=CC(C)(C)OC(C)(C)C1[C@@H]3O` (stereo not given in full), 10 p.p.m.
As for `C=C(C)[C@H]1C(=O)c2c3c(cc4c5c(n1c24)[C@@]1(C)C(CC[C@H]2[C@](C)(C/C=C/C(=O)OC)[C@@H](O)CC[C@@]21C)C5)C1=CC(C)(C)OC(C)(C)C1[C@@H]3O` (stereo not given in full), the Activity worked out at 10 p.p.m.
